Results taken from patent US20070003976A1, “Car ligand-binding domain polypeptide co-crystallized with a ligand, and methods of designing ligands that modulate car activity” (SMITHKLINE BEECHAM CORPORATION, priority 2003, published 2007).

Molecular target: T1, human CAR LBD protein (Homo sapiens, UniProt Q14994)
T1 construct: made in house; host or cells: E. coli BL21 (DE3), pRSETA vector
T1 sequence (Q14994 103-348 isoform Q14994-2): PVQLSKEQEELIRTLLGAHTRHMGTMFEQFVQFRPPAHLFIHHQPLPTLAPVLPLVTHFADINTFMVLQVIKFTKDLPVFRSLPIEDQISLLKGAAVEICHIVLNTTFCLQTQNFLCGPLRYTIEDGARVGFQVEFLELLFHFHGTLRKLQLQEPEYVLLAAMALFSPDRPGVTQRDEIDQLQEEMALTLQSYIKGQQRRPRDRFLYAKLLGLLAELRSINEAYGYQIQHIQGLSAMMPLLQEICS
Test: Fluorescence Resonance Energy Transfer (FRET) Ligand Sensing Assay: CAR LBD / SRC-1 coactivator peptide interaction
Type: biochemical
Experimental: Screening of synthetic compound libraries with the purified CAR LBD protein by a Fluorescence Resonance Energy Transfer (FRET) Ligand Sensing Assay (Parks et al., 1999) was conducted to identify molecules that alter the basal interaction between a coactivator peptide and the CAR LBD protein. Briefly, the purified human CAR LBD protein was biotinylated and labeled with streptavidin-conjugated fluorophore allophycocyanin. The labeled CAR LBD protein was incubated with a test compound and with a peptide that included the second LXXLL binding motif of the nuclear coactivator SRC-1 (GenBank Accession No. U59302; amino acids 676-700) that was labeled with europium chelate. Data were collected with a WALLAC VICTOR™ fluorescence reader (available from PerkinElmer Life Sciences Inc., Boston, Mass., United States of America) in a time resolved mode and the fluorescence ratio calculated.

EC50 (dose response curves with purified CAR LBD protein, reduction of basal CAR LBD/SRC-1 peptide FRET signal (inverse agonist)): 15 nM
Structure (SMILES): NC(=O)c1ccc2nc(NC(c3ccccc3)c3ccccc3)n(CCc3ccccc3)c2c1 [Compound 1, 2-(benzhydrylamino)-1-(2-phenylethyl)-1H-benzimidazole-6-carboxamide]
effect on basal fluorescent signal (CAR LBD/SRC-1 interaction) (screen of synthetic compound libraries, time resolved fluorescence ratio): inverse agonist molecule that reduces the basal fluorescent signal
